# From US5863915A, “Substituted 4-arylbutyric acid derivatives as matrix metalloprotease” (Bayer Corporation, priority 1997, dated 1999)
# Key:
# [1] = test system: MMP-3, MMP-9 and MMP-2; experiment: MMP profiling assay, overall comparison of the three MMPs (Table 5 data); format: biochemical, human; conditions: for MMP inhibition activity in words: substituent size on the 4-phenyl ring; for selectivity of activity among the MMP's, in words: MMP-2 and MMP-9 vs MMP-3
# Text: MMP Microfluorometric Profiling Assay
# IC50 Determination in Microfluorometric Assay
# ((Control values-Treated Values)/Control Values)×100
# [2] = test system: human colon tumor; conditions: given intraperitoneally; orthotopic model in nude mice; cited from earlier work
# [3] = test system: human ovarian carcinoma xenografts; conditions: mouse, in vivo; cited from earlier work
SMILES,MMP inhibition activity in words [1],other results
"O=C(CC(CCN1C(=O)c2ccccc2C1=O)C(=O)O)c1ccc(Br)cc1 (centres unmarked) [Compound B, 4-(4-bromophenyl)-4-oxo-2-(2-phthalimidoethyl) butyric acid]",activities are low,
"O=C(CC(CCN1C(=O)c2ccccc2C1=O)C(=O)O)c1ccccc1 (centres unmarked) [Compound D, 4-phenyl-4-oxo-2-(2-phthalimidoethyl)butyric acid]",activities are low,
"CCCCCCCCCCCCCCOc1ccc(C(=O)CC(CCN2C(=O)c3ccccc3C2=O)C(=O)O)cc1 (centres unmarked) [Compound F, 4-(4-tetradecyloxyphenyl)-4-oxo-2-(2-phthalimidoethyl)butyric acid]",activity is also low,
"COc1ccc(C(=O)CC(CCN2C(=O)c3ccccc3C2=O)C(=O)O)cc1 (centres unmarked) [Compound G, 4-(4-methoxyphenyl)-4-oxo-2-(2-phthalimidoethyl)butyric acid]",activities are low,
"CCCCCCCOc1ccc(C(=O)CC(CCN2C(=O)c3ccccc3C2=O)C(=O)O)cc1 (centres unmarked) [Example 10, 4-(4-heptyloxyphenyl)4-oxo-2-(2-phthalimidoethyl) butyric acid]",,"selectivity of activity among the MMP's, in words [1]: broad high activity"
"CCCCCCOc1ccc(C(=O)CC(CCN2C(=O)c3ccccc3C2=O)C(=O)O)cc1 (centres unmarked) [Example 11, 4-(4-hexyloxyphenyl)-4-oxo-2-(2-phthalimidoethyl) butyric acid]",,"selectivity of activity among the MMP's, in words [1]: broad high activity"
CNC(=O)[C@H](Cc1ccccc1)NC(=O)[C@H](CC(C)C)[C@H](CSc1cccs1)C(=O)NO [batimastat],,human colon tumor growth and spread [2]: inhibits human colon tumor growth and spread; survival of mice bearing human ovarian carcinoma xenografts [3]: prolongs the survival of mice
